Test: Surface tension of blood containing blood modifying agent, pendant drop method (Example 7)
Details: 0.10 mass % in sheep defibrinated blood; 35° C.
Experimental: The surface tension of blood containing a blood modifying agent was measured by the pendant drop method, using a Drop Master500 contact angle meter by Kyowa Interface Science Co., Ltd. The surface tension was measured after adding a prescribed amount of blood modifying agent to sheep defibrinated blood, and thoroughly shaking.
The measurement was accomplished automatically with a device, and the […] γ was determined by the following formula (see FIG. 98). γ=g×ρ×(de)^2×1/H
The density ρ was measured at the temperatures listed in Table 5, according to JIS K 2249-1995, “Density test methods and density/mass/volume conversion tables”, “5. Vibrating density test method”.
The measurement was accomplished using a DA-505 by Kyoto Electronics Co., Ltd.

## CCCCCCCCCCCCOC(=O)CCCCCCCCCCC [No. 2-18, Ester of dodecanoic acid (C12) and dodecyl alcohol (C12)]
  Surface tension (mN/m): 58.8 mN/m
